Assays:
[1] = system: CYP707A1; experiment: qRT-PCR transcript level in mannitol stressed plants: CYP707A1; format: in vivo, Arabidopsis thaliana; settings: 10 and 33 μM, 6 hours post-compound treatment, normalized to UBQ10
Protocol: (§1) For each condition to be tested, three hundred wild-type Arabidopsis thaliana Col-0 seeds (LEHLE) were sterilized, vernalized and sewn onto 200 mL of Sunshine Mix #3 (Sun Gro) potting material in an 8×8×4 cm pot. Plants were watered continuously with 25 g/100 mL of 20-20-20 (PlantProdTM) fertilizer and grown at 22° C. with a 16 hour photoperiod for 22 days. Plants were pre-treated with 50 mL/pot of Buffer A (10 mM HEPES pH 6.5) (Sigma)+/-10 or 33 μM test compound for 2 hours. Plants were then soaked with 50 mL/pot of Buffer A containing 0.4 M mannitol (Sigma)+/-10 or 33 μM test compound. Non-treated/non-stressed control plants were simply soaked in Buffer A at the designated time points. Aerial plant tissue was harvested after 6, 12 and 48 hours from the time of initial inhibitor treatment and flash frozen in liquid nitrogen. Half of the tissue samples were lyophilized for metabolite profiling and the other half taken for quantitative reverse-transcription polymerase chain reaction (qRT-PCR) analysis. […] The resulting mRNA was quantified and checked for quality using a Nano-DropTM ND-1000 Spectrophotometer. QuantiTectTM Reverse Transcription Kit (Qiagen) was used to produce cDNA as directed by the manufacturer from 20 ng of starting mRNA. […] Relative changes in transcript level were normalized using UBQ10 and quantified as previously described.^41

[2] = system: ABA and catabolites in Arabidopsis thaliana Col-0 plants; experiment: Total ABA metabolite levels in mannitol stressed plants treated with SLCCD inhibitors; format: in vivo; settings: for effect on ABA and catabolite pools under osmotic stress, compared with 13 (in words): whole time course
Protocol: For each condition to be tested, three hundred wild-type Arabidopsis thaliana Col-0 seeds (LEHLE) were sterilized, vernalized and sewn onto 200 mL of Sunshine Mix #3 (Sun Gro) potting material in an 8×8×4 cm pot. Plants were watered continuously with 25 g/100 mL of 20-20-20 (PlantProd™) fertilizer and grown at 22° C. with a 16 hour photoperiod for 22 days. Plants were pre-treated with 50 mL/pot of Buffer A (10 mM HEPES pH 6.5) (Sigma)+/−10 or 33 μM test compound for 2 hours. Plants were then soaked with 50 mL/pot of Buffer A containing 0.4 M mannitol (Sigma)+/−10 or 33 μM test compound. Non-treated/non-stressed control plants were simply soaked in Buffer A at the designated time points. […] Half of the tissue samples were lyophilized for metabolite profiling and the other half taken for quantitative reverse-transcription polymerase chain reaction (qRT-PCR) analysis.
Freeze-dried tissue was homogenized using a multi-tube ball mill (Mini-BeadBeater-96™, Biospec Products Inc., Bartlesville, Okla., USA) and 50 mg of each sample was weighed out into individual Falcon tubes. To each sample, 100 μL of a cocktail of internal standards comprised of (−)-5,8′,8′,8′-d4-ABA, (−)-7′,7′,7′-d3-PA, (−)-5,8′,8′,8′-d4-7′OH ABA, (−)-7′,7′,7′-d3-DPA and (+)-4,5,8′,8′,8′-d5-ABAGE, each at a concentration of 0.2 ng/μL and dissolved in a mixture of water:acetonitrile (1:1, v/v) with 0.5% glacial acetic acid, was added. Further, 3 mL of isopropanol:water:glacial acetic acid (80:19:1, v/v/v) extraction solvent was added, and samples were placed in the fridge (4° C., in the dark) on an orbital shaker at about 350 rpm. After 18-24 hours, the samples were centrifuged at 4.4 krpm for 10 min, the supernatant was transferred to a disposable culture tube, and a second portion of 500 μL extraction solvent mixture was added to wash the pellet. After vortexing and centrifuging again at 4.4 krpm for 10 min, each wash was combined with its appropriate supernatant. The organic extract was dried under reduced pressure, then re-dissolved in 100 μL methanol:glacial acetic acid (99:1, v/v) followed by 900 μL of aqueous 1% glacial acetic acid. This mixture was extracted with 2 mL hexane, and then the aqueous layer was dried down under reduced pressure. The sample was further reconstituted in 2 mL aqueous 1% glacial acetic acid and loaded onto an Oasis MCX SPE cartridge (3 cc, Waters Corporation, Mississauga, Ontario, Canada). After a wash with 3 mL aqueous 1% glacial acetic acid, samples were eluted with 1 mL methanol:glacial acetic acid (99:1, v/v) and then dried down under reduced pressure. The extract was re-dissolved in 100 μL methanol:glacial acetic acid (99:1, v/v) followed by 900 μL of aqueous 1% glacial acetic acid. This mixture was further cleaned on an Oasis HLB SPE cartridge (1 cc, Waters Corporation, Mississauga, Ontario, Canada). After a wash with 1 mL aqueous 1% glacial acetic acid, the fraction containing ABA and ABA metabolites was eluted with 1 mL acetonitrile:water:glacial acetic acid (30:69:1, v/v/v) and then was evaporated to dryness. The final residue was dissolved in 200 μL of acetonitrile:water (15:85, v/v) containing 0.1% glacial acetic acid and 100 pg/μL (±)-3′,5′,5′,7′,7′,7′-d6-ABA as a recovery standard. Finally, the sample was subjected to LC-ES-MS/MS analysis and quantification, as described in Owen and Abrams, 2008.^39

[3] = system: Rd29B; experiment: qRT-PCR transcript level in mannitol stressed plants: Rd29B; format: in vivo, Arabidopsis thaliana; settings: 10 and 33 μM, 6 hours post-compound treatment, normalized to UBQ10
Protocol: as §1

[4] = system: CYP707A3; experiment: qRT-PCR transcript level in mannitol stressed plants: CYP707A3; format: in vivo, Arabidopsis thaliana; settings: 10 and 33 μM, 6 hours post-compound treatment, normalized to UBQ10
Protocol: as §1

[5] = 33 μM inhibitor, mannitol stress

SMILES | CYP707A1 mRNA transcript level vs mannitol-stressed control (in words) [1] | total levels of ABA and catabolites ([2]; 33 μM inhibitor 2 h before and during 0.4 M mannitol stress, 24 hours, mannitol only 15147 pmol/g) | levels of ABA and catabolites at first time point (in words) ([2]; 33 μM inhibitor, mannitol stress, first 6 hours) | inhibition of mannitol-induced Rd29b transcription [3] | CYP707A3 mRNA transcript level vs mannitol-stressed control (in words) [4] | effect on ABA and catabolite pools under osmotic stress, compared with 13 (in words) [2, 5]
CCSCC=C(C)C#CC1(O)C(C)CC(=O)CC1(C)C (racemic) [Compound 13, (4S,5R/4R,5S)-(3′Z)-4-(5′-(Ethylthio)-3′-methylpent-3′-en-1′-ynyl)-4-hydroxy-3,3,5-trimethylcyclohexanone] | reductions in the accumulation of mRNA transcript levels | 8211 pmol/g | comparable to those of the non-treated/non-stressed control plants | about 90% | reductions in the accumulation of mRNA transcript levels | 
C/C(C#C[C@@]12O[C@]1(C)C[C@@H](O)CC2(C)C)=C/CSc1ccccc1 [Compound 17, (1R,3S,6R)-(3′Z)-1,5,5-Trimethyl-6-(3′-methyl-5′-(phenylthio)-pent-3′-en-1′-ynyl)-7-oxa-bicyclo[4.1.0]heptan-3-ol] |  |  |  |  |  | less effective than 13
C/C(C#C[C@@]12O[C@]1(C)C[C@@H](O)CC2(C)C)=C/CNc1ccccc1 [Compound 18, (1R,3S,6R)-(3′Z)-1,5,5-Trimethyl-6-(3′-methyl-5′-(phenylamino)-pent-3′-en-1-ynyl)-7-oxabicyclo[4.1.0]heptan-3-ol] |  |  |  |  |  | less effective than 13
